Columns and labels:
[1] = tested on: Human alphaherpesvirus 3; assay: In vitro effective concentration required to inhibit varicella zoster virus (VZV) replication in HFF cell line; assay type: functional, organism-based; conditions: Human alphaherpesvirus 3, HFF
[2] = tested on: Hepatitis B virus; assay: In vitro effective concentration required to inhibit hepatitisB virus (HBV) replication in 2.2.15 cell line; assay type: functional, organism-based
[3] = tested on: Human betaherpesvirus 5; assay: In vitro effective concentration required to inhibit towne strain of human cytomegalovirus (HCMV) replication in HFF cell line; assay type: functional, organism-based; conditions: Human betaherpesvirus 5, HFF
[4] = tested on: HepG2; assay: In vitro cytotoxic concentration required to inhibit hepatitisB virus (HBV) replication in 2.2.15 cell line; assay type: functional; conditions: Homo sapiens
[5] = tested on: HFF; assay: In vitro cytotoxic concentration required to inhibit AD169 strain of human cytomegalovirus (HCMV) replication in HFF cell line; assay type: functional
[6] = tested on: Human gammaherpesvirus 4; assay: In vitro effective concentration required to inhibit Epstein-Barr virus (EBV) replication in Daudi cells; assay type: functional, organism-based; conditions: human gammaherpesvirus 4, Daudi
[7] = tested on: Human betaherpesvirus 5; assay: In vitro effective concentration required to inhibit AD169 strain of human cytomegalovirus (HCMV) replication in HFF cell line; assay type: functional, organism-based; conditions: Human betaherpesvirus 5, HFF
[8] = tested on: Human betaherpesvirus 5; assay: In vitro cytotoxic concentration required to inhibit towne strain of human cytomegalovirus (HCMV) replication in HFF cell line; assay type: functional; conditions: Human betaherpesvirus 5, HFF
[9] = tested on: Human gammaherpesvirus 4; assay: In vitro cytotoxic concentration required to inhibit Epstein-Barr virus (EBV) replication in Daudi cells; assay type: functional; conditions: human gammaherpesvirus 4, Daudi
[10] = tested on: Human gammaherpesvirus 4; assay: In vitro effective concentration required to inhibit Epstein-Barr virus (EBV) replication in H-1 cell line; assay type: functional, organism-based; conditions: human gammaherpesvirus 4, H-1
[11] = tested on: Murid betaherpesvirus 1; assay: In vitro cytotoxic concentration required to inhibit murine cytomegalovirus (MCMV) replication in MEF cell line; assay type: functional
[12] = tested on: MEF; assay: In vitro effective concentration required to inhibit murine cytomegalovirus (MCMV) replication in MEF cell line; assay type: functional, cell-based; conditions: Mus musculus
[13] = tested on: HFF; assay: In vitro effective concentration required to inhibit varicella zoster virus (VZV) replication in HFF cell line by plaque reduction assay; assay type: functional, cell-based; conditions: Homo sapiens

SMILES | EC50 [1] [µM] | EC50 [2] [µM] | EC50 [3] [µM] | CC50 [4] [µM] | CC50 [5] [µM] | EC50 [6] [µM] | EC50 [7] [µM] | CC50 [8] [µM] | CC50 [9] [µM] | EC50 [10] [µM] | CC50 [11] | CC50 ([11]; Murid betaherpesvirus 1, MEF) [µM] | EC50 [12] [µM] | EC50 [13] [µM]
Nc1nc(NC2CC2)c2ncn(/C=C3\CC3(CO)CO)c2n1 | > 331 | > 20 | > 100 | > 100 | > 331 | 0.3 | 327 | > 100 | > 165 | > 20 |  |  |  | 
Nc1nc(N)c2ncn(C=C3CC3(CO)CO)c2n1 [listing 1 of 3 here] |  |  |  |  |  |  |  |  |  |  | Not toxic |  |  | 
Nc1nc(Cl)c2ncn(C=C3CC3(CO)CO)c2n1 [listing 1 of 2 here] | > 71 | > 20 | > 100 | 23.6 | > 355 | > 178 | > 355 | > 100 | > 178 | 16.4 |  |  |  | 
Nc1nc(N)c2ncn(C=C3CC3(CO)CO)c2n1 [listing 2 of 3 here] | 270 | > 20 | > 100 | > 100 | > 381 | < 0.31 | 313 | > 100 | 191 | > 20 |  |  |  | 
COc1nc(N)nc2c1ncn2C=C1CC1(CO)CO [listing 1 of 3 here] | 11.2 | > 20 | 3.5 | 90 | > 361 | 161 | 2.7 | > 100 | > 180 | 4.8 |  | > 361 | 2 | 3.3
Nc1nc2c(ncn2/C=C2\CC2(CO)CO)c(=O)[nH]1 | > 357 | > 20 | 39 | > 50 | > 380 | 119 | 120 | > 100 | > 190 | > 20 |  | > 380 | 42 | 
Nc1nc(Cl)c2ncn(C=C3CC3(CO)CO)c2n1 [listing 2 of 2 here] | > 71 | > 20 | > 100 | 11.6 | > 301 | 142 | > 355 | > 100 | > 178 | 16.4 |  |  |  | 
Nc1ccn(/C=C2/CC2(CO)CO)c(=O)n1 | > 448 | > 10 | 32 | > 50 | > 448 | > 45 | 14.3 | > 100 | 70 | > 20 |  | > 448 | 54 | 
Nc1ncnc2c1ncn2/C=C1\CC1(CO)CO | 11.7 | > 10 | > 100 | > 50 | > 404 | 132 | > 404 | > 100 | > 202 | > 20 |  |  |  | 44.9
Nc1nc(NC2CC2)c2ncn(/C=C3/CC3(CO)CO)c2n1 | > 66 | > 20 | > 100 | > 100 | > 331 | > 165 | 255 | > 100 | > 165 | > 20 |  |  |  | 
Nc1nc(F)c2ncn(C=C3CC3(CO)CO)c2n1 [listing 1 of 2 here] | 31.7 | 0.02 | 33 | > 100 | > 337 | > 189 | 43.7 | > 100 | > 189 | 18.5 |  | 176 | 18.9 | 180
Cc1cn(/C=C2\CC2(CO)CO)c(=O)[nH]c1=O | > 420 | > 10 | > 100 | > 50 | > 420 | 178 | > 420 | > 100 | > 210 | > 20 |  |  |  | 
Nc1ncnc2c1ncn2/C=C1/CC1(CO)CO | > 404 | > 10 | 3.6 | > 50 | > 404 | 166 | 11.7 | 100 | > 202 | 16 |  | > 404 | 9.7 | 
Nc1ccn(/C=C2\CC2(CO)CO)c(=O)n1 | > 448 | > 10 | > 100 | > 50 | > 448 | 152 | > 448 | > 100 | > 224 | > 20 |  |  |  | 
Nc1nc2c(ncn2COC(CO)CO)c(=O)[nH]1 [GANCICLOVIR] |  |  | 4.1 |  | > 392 |  | 2.3 | > 100 |  |  |  | > 35 | 5 | 
Cc1cn(/C=C2/CC2(CO)CO)c(=O)[nH]c1=O | > 420 | > 10 | > 100 | > 50 | > 420 | 4.6 | > 420 | > 100 | > 210 | 19 |  |  |  | 
Nc1nc(F)c2ncn(C=C3CC3(CO)CO)c2n1 [listing 2 of 2 here] | 41.8 | > 20 | 38 | 56.4 | > 377 | > 189 | 22.2 | > 100 | > 189 | 20.8 |  | 176 | 18.9 | 50.1
Nc1nc(N)c2ncn(C=C3CC3(CO)CO)c2n1 [listing 3 of 3 here] | 8.4 | 4 | 15 | 48 | > 381 | > 191 | > 381 | > 100 | > 191 | > 20 |  |  |  | 38.9
COc1nc(N)nc2c1ncn2C=C1CC1(CO)CO [listing 2 of 3 here] |  |  |  |  |  |  |  |  |  |  | Not toxic |  |  | 
Nc1nc2c(ncn2/C=C2/CC2(CO)CO)c(=O)[nH]1 [FILOCICLOVIR] | > 380 | > 10 | 0.46 | > 50 | > 380 | 45 | 0.49 | > 100 | 74 | 7 |  | > 380 | 0.27 | 
COc1nc(N)nc2c1ncn2C=C1CC1(CO)CO [listing 3 of 3 here] | 322 | > 20 | > 100 | > 100 | > 361 | > 180 | > 361 | > 100 | > 180 | > 20 |  |  |  | 

Reference: ChEMBL document CHEMBL1137080, “Synthesis and antiviral activity of (Z)- and (E)-2,2-[bis(hydroxymethyl)cyclopropylidene]methylpurines and -pyrimidines: second-generation methylenecyclopropane analogues of nucleosides” (J Med Chem, 2004)
